Laboratory results taken from patent US5571942A, “Ring-substituted 2-amino-1,2,3,4-tetrahydronaphthalenes and 3-aminochromanes” (Eli Lilly and Company, priority 1995, dated 1996).

What was measured:
Design in all cases: species or system rat (male Sprague-Dawley)
5-HT1A receptors [1] = target: T1, 5-HT1A receptors (Rattus norvegicus, UniProt P19327); experiment: in vitro binding: inhibition of 3H-8-OH-DPAT binding to synaptosomal membranes from rat cerebral cortex; settings: 3H-8-OH-DPAT 2 nM, 37° C., 10 min, pH 7.4
T1 construct: from tissue; host or cells: cerebral cortex (crude synaptosomal membranes) of male Sprague-Dawley rats
T1 sequence (P19327 1-422): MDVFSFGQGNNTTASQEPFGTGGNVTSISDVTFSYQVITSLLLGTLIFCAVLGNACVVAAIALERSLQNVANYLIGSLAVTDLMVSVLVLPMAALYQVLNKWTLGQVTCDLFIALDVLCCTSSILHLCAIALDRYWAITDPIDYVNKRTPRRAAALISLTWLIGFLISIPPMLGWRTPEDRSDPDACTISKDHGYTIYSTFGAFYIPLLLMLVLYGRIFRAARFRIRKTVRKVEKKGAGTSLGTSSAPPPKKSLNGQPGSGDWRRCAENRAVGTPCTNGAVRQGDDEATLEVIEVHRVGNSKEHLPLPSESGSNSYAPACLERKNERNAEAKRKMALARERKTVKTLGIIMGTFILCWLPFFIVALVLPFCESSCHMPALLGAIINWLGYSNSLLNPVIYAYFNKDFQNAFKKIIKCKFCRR
From the text: Sites specifically labeled by tritiated 8-hydroxy-2-dipropylamino-1,2,3,4-tetrahydronaphthalene (^3 H-8-OH-DPAT) have been identified as 5-HT1A receptors. This general procedure is set forth in Wong et al., J. Neural Transm. 71:207-218 (1988).
Male Sprague-Dawley rats (110-150 g) from Harlan Industries (Cumberland, Ind.) were fed a Purina Chow ad libitum for at least 3 days before being used in the studies. Rats were killed by decapitation. The brains were rapidly removed, and the cerebral cortices were dissected out at 4° C.
Brain tissues were homogenized in 0.32M sucrose. After centrifugation at 1000×g for 10 min and then at 17000×g for 20 min, a crude synaptosomal fraction was sedimented. The pellet was suspended in 100 vol of 50 mM Tris-HCl, pH 7.4, incubated at 37° C. for 10 min, and centrifuged at 50000×g for 10 min. The process was repeated and the final pellet was suspended in ice-chilled 50 mM Tris-HCl, pH 7.4.
Binding of ^3 H-8-OH-DPAT was performed according to the previously described method [Wong et al., J. Neural Transm. 64:251-269 (1985)]. Briefly, synaptosomal membranes isolated from cerebral cortex were incubated at 37° C. for 10 min. in 2 ml of 50 mM Tris-HCl, pH 7.4; 10 mM pargyline; 0.6 mM ascorbic acid; 5 mM CaCl2; 2 nM ^3 H-8-OH-DPAT and 0.1 to 1000 nm of the compound of interest. Binding was terminated by filtering samples under reduced pressure through glass fiber (GFB) filters. The filters were washed twice with 5 ml of ice cold buffer and placed in scintillation vials with 10 ml of PCS (Amersham/Searle) scintillation fluid. Radioactivity was measured with a liquid scintillation spectrometer. Unlabeled 8-OH-DPAT at 10 μM was also included in separate samples to establish non-specific binding. Specific binding of ^3 H-8-OH-DPAT is defined as the difference of radioactivity bound in the absence and in the presence of 10 μM unlabeled 8-OH-DPAT.
(§1) The results provided in columns 3-5 are indicative of 5-HT1A agonist activity.

5-HT1A receptors [2] = target: T1, 5-HT1A receptors; experiment: in vivo elevation of serum corticosterone levels (5-HT1A agonist activity); settings: sc, one hour after treatment
Protocol: (§2) Compounds of this invention were also examined for their in vivo effects on brain 5-HIAA and serum corticosterone levels. Male Sprague-Dawley rats weighting 150-200 g were administered subcutaneously or orally with aqueous solutions of the test compound. One hour after treatment, the rats were decapitated and trunk blood collected. The blood was allowed to clot and then was centrifuged to separate the serum. The concentration of corticosterone in the serum was determined by the spectrofluorometric method of Solem, J. H.; Brinck-Johnsen, T., Scand. J. Clin. Invest. [Suppl. 80], 17, 1 (1965). The whole brains from the decapitated rats were quickly removed, frozen on dry ice, and stored at -15° C. 5-HIAA concentrations were measured by liquid chromatography with electrochemical detection as described by Fuller, R. W.; Snoddy, H. D.; Perry, K. W., Life Sci. 40, 1921 (1987).
as §1

5-HT1A receptors [3] = target: T1, 5-HT1A receptors; experiment: in vivo lowering of brain 5-HIAA levels (5-HT1A agonist activity); settings: one hour after treatment
Protocol: as §2, §1

Structure (SMILES) | IC50 (5-HT1A receptors [1]) | Corticosterone MED (minimum effective dose elevating serum corticosterone levels) (5-HT1A receptors [2]) | 5-HIAA MED (minimum effective dose lowering brain 5-HIAA levels) (5-HT1A receptors [3]; po) | 5-HIAA MED (minimum effective dose lowering brain 5-HIAA levels) (5-HT1A receptors [3]; sc)
CCCN(CCC)C1CCc2cccc(-c3ccnn3C)c2C1 (stereo not drawn) [5 (5-yl), 2-Di-n-propylamino-8-(1-methylpyrazol-5-yl)-1,2,3,4-tetrahydronaphthalene] | 7.2 nM |  |  | 
CCCN(CCC)C1CCc2cccc(-c3noc(-c4ccccc4)n3)c2C1 (stereo not drawn) [Example 2, 2-Di-n-propylamine-8-(5-phenyl-1,2,4-oxadiazol-3-yl)-1,2,3,4-tetrahydronaphthalene] | 36 nM |  |  | 
CCCN(CCC)C1CCc2cccc(-c3cc(O)[nH]n3)c2C1 (stereo not drawn) [Example 6, 2-Di-n-propylamino-8-(5-hydroxypyrazol-3-yl)-1,2,3,4-tetrahydronaphthalene] | 62 nM |  |  | 
CCCN(CCC)C1CCc2cccc(-c3ccno3)c2C1 (stereo not drawn) [Example 8, 2-Di-n-propylamino-8-(isoxazol-5-yl)-1,2,3,4-tetrahydronaphthalene] |  | 0.3 mg/kg | 3 mg/kg | 0.1 mg/kg
CCCN(CCC)C1CCc2cccc(-c3csc(N)n3)c2C1 (stereo not drawn) [Example 10, 2-Di-n-propylamino-8-(2-aminothiazol-4-yl)-1,2,3,4-tetrahydronaphthalene] | 19 nM |  |  | 
CCCN(CCC)C1CCc2cccc(-c3ccc4ccccc4n3)c2C1 (stereo not drawn) [Example 12, 2-Di-n-propylamino-8-(quinol-2-yl)-1,2,3,4-tetrahydronaphthalene] | 87 nM |  |  | 
CCCN(CCC)C1CCc2cccc(-c3cnc4ccccc4c3)c2C1 (stereo not drawn) [Example 13, 2-Di-n-propylamino-8-(quinol-3-yl)-1,2,3,4-tetrahydronaphthalene] | 16 nM |  |  | 
CCCN(CCC)C1CCc2cccc(-c3ccccn3)c2C1 (stereo not drawn) [Example 15, 2 -Di-n-propylamino-8-(pyrid-2-yl)-1,2,3,4-tetrahydronaphthalene] | 33 nM |  |  | 
CCCN(CCC)C1CCc2cccc(-c3cc(Br)no3)c2C1 (stereo not drawn) [Example 20, 2-Di-n-propylamino-8-(3-bromoisoxazol-5-yl)-1,2,3,4-tetrahydronaphthalene] |  | > 1.0 mg/kg |  | > 1.0 mg/kg
CCCN(CCC)C1CCc2cccc(-c3oncc3C)c2C1 (stereo not drawn) [Example 21, 2-Di-n-propylamino-8-(4-methylisoxazol-5-yl)-1,2,3,4-tetrahydronaphthalene] |  | 1.0 mg/kg | > 10 mg/kg | 0.3 mg/kg
CCCN(CCC)C1CCc2cccc(-c3cc(C)no3)c2C1 (stereo not drawn) [Example 23, 2-Di-n-propylamino-8-(3-methylisoxazol-5-yl)-1,2,3,4-tetrahydronaphthalene] |  | > 1.0 mg/kg |  | 1.0 mg/kg
CCCN(CCC)C1CCc2cccc(-c3cc(SC)no3)c2C1 (stereo not drawn) [Example 30, 2-Di-n-propylamino-8-(3-methylthioisoxazol-5-yl)-1,2,3,4-tetrahydronaphthalene] |  | > 1.0 mg/kg |  | > 1.0 mg/kg
CCCN(CCC)C1CCc2cccc(-c3oncc3OC)c2C1 (stereo not drawn) [Example 31, 2-Di-n-propylamino-8-(4-methoxyisoxazol-5-yl)-1,2,3,4-tetrahydronaphthalene] |  | > 1.0 mg/kg |  | 1.0 mg/kg
CCCN(CCC)C1CCc2cccc(-c3ccnc(N)n3)c2C1 (stereo not drawn) [Example 32, 2-Di-n-propylamino-8-(2-aminopyrimidin-4-yl)-1,2,3,4-tetrahydronaphthalene] | 67 nM |  |  | 
CCCN(CCC)C1CCc2cccc(-c3nc(-c4ccccc4)no3)c2C1 (stereo not drawn) [Example 34, 2-Di-n-propylamino-8-(3-phenyl-1,2,4-oxadiazol-5-yl)-1,2,3,4-tetrahydronaphthalene] | 11 nM |  |  | 
CCCN(CCC)C1CCc2cccc(-c3nc(C)no3)c2C1 (stereo not drawn) [Example 35, 2-Di-n-propylamino-8-(3-methyl-1,2,4-oxidiazol-5-yl)-1,2,3,4-tetrahydronaphthalene] | 16 nM |  |  | 
